In patent US20130178453A1, “Cannabinoid Agonists” (priority 2010, published 2013):
Read-outs that look alike come from different tables or passages of the source.

Key:
hCB2 [1] = molecular target: T1, hCB2 (Homo sapiens, UniProt P34972); assay: hCB2 radioligand binding assay ([3H]-CP 55,940 displacement); conditions: HEK membranes
Protocol: (§1) cDNA expression clones for human CB 1 (hCB1, Genbank Accession No. AY225225) and human CB2 (hCB2, Genbank Accession No. AY242132) expressed in vector pcDNA3.1+ were purchased from UMR cDNA Resource Center, Rolla, Mo. (Clone ID CNR01L000 for hCB1; CNR0200000 for hCB2).
(§2) Membranes were isolated from transfected cells as follows. Monolayers of cultured cells were washed twice with phosphate-buffered saline (PBS). […] Homogenates were centrifuged 10 minutes at 1000×g at 4° C. The supernatant was collected and was centrifuged for 1 hour at 40,000×g. The supernatant was then decanted and the resulting pellet was re-suspended in 20 mM HEPES, pH 7.4, 5 mM MgCl2, 1 mM EDTA, 10% sucrose with complete cocktail protease inhibitors. Protein concentration of membrane suspensions were measured by Bradford Protein Assay using bovine serum albumin as the standard (BioRad catalog #500-0006). Protein concentrations of membrane suspensions were adjusted with the final buffer in the range of 5 to 10 mg/mL and were stored at −80° C. until further use.
A rapid filtration technique using Millipore FB filter plates (Catalog #MADVNOB) and filtration apparatus (Millipore system Catalog MAVM0960R) with vacuum aspiration was used to harvest and rinse labeled membranes (8 times with 0.2 mL of chilled binding buffer). […] Binding data were analyzed using GraphPad Prism (GraphPad Software, Inc. San Diego, Calif.).

hCB1 = hCB1 (Homo sapiens, UniProt P21554); assay: hCB1 radioligand binding assay ([3H]-CP 55,940 displacement); conditions: HEK membranes
hCB1, sequence (P21554 whole entry): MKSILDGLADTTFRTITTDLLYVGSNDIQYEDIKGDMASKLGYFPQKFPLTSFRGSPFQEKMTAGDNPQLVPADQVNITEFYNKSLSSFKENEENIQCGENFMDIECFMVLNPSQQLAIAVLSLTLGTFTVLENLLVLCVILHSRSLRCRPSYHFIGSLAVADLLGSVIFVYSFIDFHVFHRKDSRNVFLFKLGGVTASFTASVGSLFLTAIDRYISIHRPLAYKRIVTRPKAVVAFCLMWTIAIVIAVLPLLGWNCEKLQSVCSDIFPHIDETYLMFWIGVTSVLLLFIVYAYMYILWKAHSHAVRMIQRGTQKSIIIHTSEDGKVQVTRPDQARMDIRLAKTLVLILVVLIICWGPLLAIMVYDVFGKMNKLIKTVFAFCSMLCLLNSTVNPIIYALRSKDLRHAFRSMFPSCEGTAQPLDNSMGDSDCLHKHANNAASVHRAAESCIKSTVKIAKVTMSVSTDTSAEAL
Description: as §1
Stable, HEK-293-derived cell lines that recombinantly express hCB1 or hCB2 were established. In brief, the clone hCB1 (CNR1L) or hCB2 (CNR2) was transfected into human embryonic kidney cells (HEK-293) using Lipofectamine 2000 (Gibco, Cat#11668-019) according to the manufacturer's protocol. Transfected clones were isolated by single colony purification and clones were screened for receptor expression using a whole cell, ^3H—CP 55,940 radioligand binding assay. HEK-293 stable cells were maintained in Dulbecco's modified Eagles medium (DMEM) containing 10% fetal bovine serum, 2 mM L-glutamine and 0.5 mg/mL G-418.
Membranes were isolated from transfected cells as follows. Monolayers of cultured cells were washed twice with phosphate-buffered saline (PBS). Cells were scraped into 20 mM HEPES, pH 7.4, 10 mM EDTA containing complete cocktail protease inhibitors (Roche, Catalog #11 697 498 001), and were homogenized by an electric-powered mechanical probe homogenizer (Omni GLH; probe G7-195S) for 40 seconds at 7000 rpm. Homogenates were centrifuged 10 minutes at 1000×g at 4° C. The supernatant was collected and was centrifuged for 1 hour at 40,000×g. The supernatant was then decanted and the resulting pellet was re-suspended in 20 mM HEPES, pH 7.4, 5 mM MgCl2, 1 mM EDTA, 10% sucrose with complete cocktail protease inhibitors. Protein concentration of membrane suspensions were measured by Bradford Protein Assay using bovine serum albumin as the standard (BioRad catalog #500-0006). Protein concentrations of membrane suspensions were adjusted with the final buffer in the range of 5 to 10 mg/mL and were stored at −80° C. until further use.
Radioligand binding assays were performed by incubating membranes (2-10 μg protein) prepared from HEK-293 cells expressing recombinant human cannabinoid receptors, CB 1 or CB2, at room temperature with 0.5 nM cannabinoid receptor agonist, [^3H]-CP 55,940 (Perkin Elmer, catalog #NET 1051) in 0.2 mL of binding buffer (50 mM Tris-HCl, pH 7.5, 5 mM MgCl2, 2.5 mM EDTA) and 0.1% fatty acid free bovine serum albumin (Sigma Cat. #A0821) for 90 minutes. A rapid filtration technique using Millipore FB filter plates (Catalog #MADVNOB) and filtration apparatus (Millipore system Catalog MAVM0960R) with vacuum aspiration was used to harvest and rinse labeled membranes (8 times with 0.2 mL of chilled binding buffer). The radioactivity bound to the filters was counted with 0.05 mL of liquid scintillant (UltraGold MV, PerkinElmer catalog #6013159) in a scintillation counter (Perkin Elmer Microbeta instrument). Nonspecific binding was determined in the presence of unlabeled 1 μM CP 55,940 (Sigma Aldrich, catalog #C1112). Binding data were analyzed using GraphPad Prism (GraphPad Software, Inc. San Diego, Calif.).

hCB2 [2] = molecular target: T1, hCB2; assay: hCB2 GTPγS agonist assay (HEK-293 membranes); type: biochemical
Protocol: as §1, §2
^35S GTPγS binding assays were performed by incubating recombinant cell membranes prepared above (5 μg) in the presence of scintillation proximity assay beads (SPA beads, Catalog #RPNQ0252 GE Healthcare, Buckinghamshire, England) in GTPγS binding buffer [50 mM HEPES (pH 7.4), 100 mM NaCl, 5 mM MgCl2, 0.001% saponin (Sigma catalog #S4521)] supplemented with 20 uM GDP (Sigma catalog #G7127) in the presence or absence of test compound. The reaction was carried out in 96-well microplates with 0.1 nM [^35S]GTPγS (specific activity=1250 Ci/mmol; Perkin Elmer catalog #NEG030X250UC) in a final volume of 100 μL. After a 90 min room temperature incubation, the reaction was analyzed using a scintillation counter (Perkin Elmer Microbeta instrument). Binding data were analyzed using GraphPad Prism.

hCB2 [3] = molecular target: T1, hCB2; assay: hCB2 cAMP agonist assay (HEK-293 cells); type: cell-based
Protocol: as §1
cAMP assays were performed in HEK-293 cells stably expressing human CB 1 or CB2 receptors. […] Cells suspensions were centrifuged and the cells were washed once with PBS, were centrifuged again, and the cells were resuspended in HBSS (Hank's Balanced Salt Solution, Cellgro, Cat #21-022-CV) solution containing 10 mM HEPES and 0.1% fatty acid free BSA (Sigma, Cat #A0281). Cell suspensions were prepared at 1,500,000 cells per mL. Stock solutions of test substances (10 mM) in DMSO were diluted to 1 mM using 30% DMSO as diluent. Test substances of solutions (1 mM) were further diluted down to 3× of final assay concentrations in the above HBSS buffer containing 0.1% BSA in the presence of 90 uM forskolin (Sigma Cat#F6886). To perform the assay, 20 μL of cell suspension (1,500,000 cells/mL) were added to each well in 96 well plate and treated with 10 μL test substance solution diluted as described above. Cells and compounds were incubated at 37° C. for 30 minutes. Cells were lysed and cAMP concentration was measured using DiscoveRx-XS+ cAMP assay kit (DiscoveRx Corporation Ltd., Fremont, Calif., USA, Cat #90-0075-03), following the manufacturer's protocol. GraphPad Prism software was used to calculate EC50 values using sigmoidal dose response curve fitting. The maximal amount of cAMP produced by forskolin was defined as 100%.

[4] = cAMP agonist, HEK, 96-well, read-out: hCB2 EC50 (cAMP ag, nM, HEK (96-well))
[5] = GTPγS agonist, HEK membranes, read-out: hCB2 EC50 (GTPyS ag, nM, HEK)

T1 sequence (P34972 whole entry): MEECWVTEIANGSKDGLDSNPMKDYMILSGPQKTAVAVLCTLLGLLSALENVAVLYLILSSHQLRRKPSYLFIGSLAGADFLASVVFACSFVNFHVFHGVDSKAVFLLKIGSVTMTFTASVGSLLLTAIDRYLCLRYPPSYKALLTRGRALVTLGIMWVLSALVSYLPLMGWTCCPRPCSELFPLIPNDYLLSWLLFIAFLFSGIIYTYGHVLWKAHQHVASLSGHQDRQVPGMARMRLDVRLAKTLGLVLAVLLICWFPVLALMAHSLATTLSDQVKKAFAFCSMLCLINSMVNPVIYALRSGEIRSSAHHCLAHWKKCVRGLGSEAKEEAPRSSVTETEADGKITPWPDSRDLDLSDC

| SMILES | IC50 (hCB2 [1]; hCB2 IC50 (CP displ, nM, HEK)) [nM] | IC50 (hCB1; hCB1 IC50 (CP displ, nM, HEK)) [nM] | EC50 (hCB2 [2]) [nM] | EC50 (hCB2 [3]) [nM] | EC50 (hCB2 [3]; [4]) [nM] | hCB1 IC50 (CP displ, nM, HEK) (hCB1) | EC50 (hCB2 [2]; [5]) [nM] | IC50 (hCB2 [1]; read-out: hCB2 IC50 (CP displ, nM, HEK)) [nM] | IC50 (hCB1; read-out: hCB1 IC50 (CP displ, nM, HEK)) [nM] |
| --- | --- | --- | --- | --- | --- | --- | --- | --- | --- |
| Cc1c(C(=O)c2cccc3ccccc23)c2ccsc2n1CCN1CCOCC1 [Compound I-5] | < 100 | 100 to 1000 | < 100 | – | – | – | – | – | – |
| CCCn1c(C)c(C(=O)c2cc3ccsc3n2CC)c2ccccc21 [Compound I-54] | < 100 | 1000 to 10000 | < 100 | < 100 | – | – | – | – | – |
| C=Cn1c(C)c(C(=O)c2cc3ccsc3n2CC)c2ccccc21 [Compound I-24] | 100 to 1000 | – | – | – | < 100 | B/C | 100 to 1000 | – | – |
| Cc1[nH]c2ccsc2c1C(=O)c1cccc2ccccc12 [Compound I-4] | 1000 to 10000 | > 10000 | – | – | – | – | 1000 to 10000 | – | – |
| CCCn1c(C)c(C(=O)c2cc3cc(Cl)sc3[nH]2)c2ccccc21 [Compound I-48] | 100 to 1000 | 1000 to 10000 | 100 to 1000 | 100 to 1000 | – | – | – | – | – |
| Cc1c(C(=O)c2cc3ccsc3[nH]2)c2ccccc2n1CCN1CCOCC1 [Compound I-82] | 100 to 1000 | 1000 to 10000 | 100 to 1000 | 100 to 1000 | – | – | – | – | – |
| CCCn1c(C(=O)c2c[nH]c3ccccc23)cc2ccsc21 [Compound I-64] | 100 to 1000 | > 10000 | – | – | 100 to 1000 | – | 100 to 1000 | – | – |
| CCCn1c(C(=O)c2c(C)n(CC)c3ccccc23)cc2ccsc21 [Compound I-50] | < 100 | 1000 to 10000 | < 100 | < 100 | – | – | – | – | – |
| CCCn1c(C(=O)c2c(C)n(CCN3CCCCC3)c3ccccc23)cc2ccsc21 [Compound I-59] | < 100 | 100 to 1000 | 100 to 1000 | < 100 | – | – | – | – | – |
| CCCn1c(C)c(C(=O)c2cc3ccsc3s2)c2ccccc21 [Compound I-46] | 100 to 1000 | 1000 to 10000 | 100 to 1000 | 100 to 1000 | – | – | – | – | – |
| CCCn1c(C(=O)c2c[nH]c3ncccc23)cc2ccsc21 [Compound I-43] | 1000 to 10000 | > 10000 | – | – | – | – | 100 to 1000 | – | – |
| CCCn1c(C(=O)c2c3c(n(CCN4CCOCC4)c2C)CCCC3)cc2ccsc21 [Compound I-79] | < 100 | 100 to 1000 | – | – | < 100 | – | < 100 | – | – |
| CCn1c(C(=O)c2c[nH]c3ccccc23)cc2ccsc21 [Compound I-37] | 100 to 1000 | > 10000 | – | – | < 100 | – | 100 to 1000 | – | – |
| CCn1c(C(=O)c2c(C)n(CCC(=O)O)c3ccccc23)cc2ccsc21 [Compound I-27, 3-(3-(6-ethyl-6H-thieno[2,3-b]pyrrole-5-carbonyl)-2-methyl-1H-indol-1-yl)propanoic acid] | 100 to 1000 | > 10000 | – | – | 100 to 1000 | – | – | – | – |
| CCCn1c(C)c(C(=O)c2cc3ccsc3n2CCC)c2cc(Cl)ccc21 [Compound I-52] | 100 to 1000 | 1000 to 10000 | 100 to 1000 | 100 to 1000 | – | – | – | – | – |
| CCCn1c(C)c(C(=O)c2cccc3ccccc23)c2ccsc21 [Compound I-2] | 100 to 1000 | 1000 to 10000 | 100 to 1000 | – | – | – | – | – | – |
| CCCn1c(C)c(C(=O)c2cc3ccsc3n2CC)c2c1CCCCC2 [Compound I-87] | < 100 | 1000 to 10000 | – | – | < 100 | – | < 100 | – | – |
| CCCn1c(C)c(C(=O)c2cc3cc(C)n(CCC)c3s2)c2ccccc21 [Compound I-56] | < 100 | 1000 to 10000 | < 100 | < 100 | – | – | – | – | – |
| CCCn1c(C)c(C(=O)c2cc3ccsc3n2CCC)c2cc(OC)ccc21 [Compound I-61] | < 100 | 100 to 1000 | – | 100 to 1000 | – | – | – | – | – |
| CCCn1c(C(=O)c2c(C)[nH]c3sccc23)cc2ccccc21 [Compound I-13] | – | – | – | – | – | – | – | > 10000 | > 10000 |
| CCCn1c(C)c(C(=O)c2cc3ccsc3n2CC)c2c1CCCC2 [Compound I-85] | < 100 | 1000 to 10000 | < 100 | < 100 | – | – | – | – | – |
| Cc1c(C(=O)c2cc3ccccc3[nH]2)c2ccsc2n1CCN1CCOCC1 [Compound I-10] | 100 to 1000 | 1000 to 10000 | – | – | – | – | – | – | – |
| CCCn1c(C)c(C(=O)c2c(C)n(CCC)c3sccc23)c2ccccc21 [Compound I-7] | 100 to 1000 | 1000 to 10000 | – | – | – | – | – | – | – |
| Cc1[nH]c2sccc2c1C(=O)c1cccc2ccccc12 [Compound I-3] | 1000 to 10000 | > 10000 | < 100 | – | – | – | – | – | – |
| CCn1c(C(=O)c2c(C)n(CCCCl)c3ccccc23)cc2ccsc21 [Compound I-18] | < 100 | 100 to 1000 | < 100 | < 100 | – | – | – | – | – |
| CCCn1c(C)c(C(=O)c2cc3occc3[nH]2)c2ccccc21 [Compound I-71] | 1000 to 10000 | > 10000 | – | – | – | – | – | – | – |
| CCCn1c(C)c(C(=O)c2cc3cc(C)[nH]c3s2)c2ccccc21 [Compound I-75] | 1000 to 10000 | > 10000 | – | – | – | – | – | – | – |
| CCCn1c(C)c(C(=O)c2cc3cc(C)n(CCC)c3s2)c2ccccc21 [Compound I-63] | 100 to 1000 | – | – | – | – | – | – | – | – |
| Cc1c(C(=O)c2cccc3ccccc23)c2sccc2n1CCN1CCOCC1 [Compound I-1] | < 100 | 100 to 1000 | < 100 | – | – | – | – | – | – |
| CCCn1c(C)c(C(=O)c2cccc3ccccc23)c2sccc21 [Compound I-12] | 100 to 1000 | 1000 to 10000 | < 100 | – | – | – | – | – | – |
